This passage reports IC50 and inhibition results from ChEMBL document CHEMBL1139701, “A bioisosteric approach to the discovery of indole carbinol androgen receptor ligands” (Bioorg Med Chem Lett, 2006).

What is called IC50 is the midpoint of a concentration-inhibition curve. The term inhibition denotes the percentage by which the read-out fell short of the control. The low end stands for little suppression, the high end for strong suppression.

The target in one test is T1, Androgen receptor (Rattus norvegicus, UniProt P15207).
T1 sequence (P15207 whole entry): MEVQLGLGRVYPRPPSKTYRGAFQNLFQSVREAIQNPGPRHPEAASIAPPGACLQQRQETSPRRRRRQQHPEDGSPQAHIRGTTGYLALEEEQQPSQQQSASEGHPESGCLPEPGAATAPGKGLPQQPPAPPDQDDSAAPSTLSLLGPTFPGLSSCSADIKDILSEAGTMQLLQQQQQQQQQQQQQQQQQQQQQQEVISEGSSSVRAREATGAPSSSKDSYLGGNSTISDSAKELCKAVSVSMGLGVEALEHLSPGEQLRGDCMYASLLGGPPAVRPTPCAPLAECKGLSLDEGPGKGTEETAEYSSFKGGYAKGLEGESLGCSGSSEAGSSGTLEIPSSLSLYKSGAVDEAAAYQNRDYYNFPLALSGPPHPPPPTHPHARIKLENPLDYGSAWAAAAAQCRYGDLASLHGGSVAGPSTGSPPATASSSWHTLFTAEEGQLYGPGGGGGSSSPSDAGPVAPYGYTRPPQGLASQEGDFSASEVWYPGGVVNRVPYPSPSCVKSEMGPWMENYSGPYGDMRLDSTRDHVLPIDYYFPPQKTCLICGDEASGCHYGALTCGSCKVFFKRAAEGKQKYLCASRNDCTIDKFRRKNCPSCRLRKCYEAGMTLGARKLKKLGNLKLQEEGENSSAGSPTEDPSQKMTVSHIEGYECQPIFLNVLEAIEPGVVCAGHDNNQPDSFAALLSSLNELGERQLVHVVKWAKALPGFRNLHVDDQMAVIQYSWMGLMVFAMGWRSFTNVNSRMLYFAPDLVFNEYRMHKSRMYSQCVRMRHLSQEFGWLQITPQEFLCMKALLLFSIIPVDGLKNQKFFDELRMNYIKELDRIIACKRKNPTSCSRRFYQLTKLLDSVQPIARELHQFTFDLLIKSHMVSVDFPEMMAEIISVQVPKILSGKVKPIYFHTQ
In words: Displacement of [3H]R1881 from rat androgen receptor. A general note: In a radioligand displacement assay an active substance lowers the binding of a labelled ligand.
As to `CC(O)(COC(=O)c1ccccc1)c1cc2cc(C#N)c(C(F)(F)F)cc2[nH]1` (centres undefined), the IC50 worked out at 480 nM.
`CC(O)(CSc1ccc(Cl)c(Cl)c1)c1cc2cc([N+](=O)[O-])c(C(F)(F)F)cc2[nH]1` (centres undefined): the IC50 turned out to be 1000 nM.
Still for that read-out and setting: the same measure for `CC(O)(CS(=O)(=O)c1ccc(F)cc1)c1cc2cc(C#N)c(C(F)(F)F)cc2[nH]1` (centres undefined): above 6900 nM; for `CC(C)(C)c1ccc(C(=O)OCC(C)(O)c2cc3cc([N+](=O)[O-])c(C(F)(F)F)cc3[nH]2)cc1` (centres undefined): 3600 nM; for `Cc1ccc(C(=O)OCC(C)(O)c2cc3cc([N+](=O)[O-])c(C(F)(F)F)cc3[nH]2)cc1` (centres undefined): 3000 nM.
The same measure, in the same setting: the value for `CC(O)(COC(=O)c1ccccc1C(F)(F)F)c1cc2cc(NC(=O)C(F)(F)F)c(C(F)(F)F)cc2[nH]1` (centres undefined) was 150 nM; that for `CN(C)c1ccc(C(=O)OCC(C)(O)c2cc3cc([N+](=O)[O-])c(C(F)(F)F)cc3[nH]2)cc1` (centres undefined) was 2600 nM; that for `COc1ccc(C(=O)OCC(C)(O)c2cc3cc([N+](=O)[O-])c(C(F)(F)F)cc3[nH]2)cc1` (centres undefined) was 6400 nM.
As to `CC(O)(COC(=O)c1ccc([N+](=O)[O-])cc1)c1cc2cc([N+](=O)[O-])c(C(F)(F)F)cc2[nH]1` (centres undefined), the IC50 is 1600 nM.
`CC(O)(CSc1ccccc1)c1cc2cc(Cl)c(C(F)(F)F)cc2[nH]1` (centres undefined) yielded an IC50 of 220 nM.
The same measure, in the same setting: the same measure for `CC(O)(COC(=O)c1ccc(F)cc1)c1cc2cc(C#N)c(C(F)(F)F)cc2[nH]1` (centres undefined): 1200 nM; for `CC(O)(CSc1ccc(Cl)cc1)c1cc2cc(Cl)c(C(F)(F)F)cc2[nH]1` (centres undefined): 180 nM.

The next test addresses T2, Androgen receptor (Rattus norvegicus) (UniProt P15207).
T2 sequence (whole entry): T1 sequence (P15207 whole entry)
The experiment in a line: Displacement of [3H]R1881 from rat androgen receptor at 30 uM relative to control.
`COC(=O)c1ccc2[nH]c(C(C)(O)CSc3ccc(Cl)cc3)cc2c1` (centres undefined): the inhibition was below 50%.
Compound `CC(O)(CSc1ccc(Cl)cc1)c1cc2ccccc2[nH]1` (centres undefined) returned an inhibition below 50%.
